Key:
β-glucuronidase enzyme = molecular target: T1, β-glucuronidase enzyme (Bos taurus, UniProt A3KMY8); assay: β-Glucuronidase inhibitory activity (p-nitrophenyl-β-D-glucuronide, 405 nm); type: biochemical; conditions: Conc. 0.05 mM
T1 sequence (A3KMY8 24-652): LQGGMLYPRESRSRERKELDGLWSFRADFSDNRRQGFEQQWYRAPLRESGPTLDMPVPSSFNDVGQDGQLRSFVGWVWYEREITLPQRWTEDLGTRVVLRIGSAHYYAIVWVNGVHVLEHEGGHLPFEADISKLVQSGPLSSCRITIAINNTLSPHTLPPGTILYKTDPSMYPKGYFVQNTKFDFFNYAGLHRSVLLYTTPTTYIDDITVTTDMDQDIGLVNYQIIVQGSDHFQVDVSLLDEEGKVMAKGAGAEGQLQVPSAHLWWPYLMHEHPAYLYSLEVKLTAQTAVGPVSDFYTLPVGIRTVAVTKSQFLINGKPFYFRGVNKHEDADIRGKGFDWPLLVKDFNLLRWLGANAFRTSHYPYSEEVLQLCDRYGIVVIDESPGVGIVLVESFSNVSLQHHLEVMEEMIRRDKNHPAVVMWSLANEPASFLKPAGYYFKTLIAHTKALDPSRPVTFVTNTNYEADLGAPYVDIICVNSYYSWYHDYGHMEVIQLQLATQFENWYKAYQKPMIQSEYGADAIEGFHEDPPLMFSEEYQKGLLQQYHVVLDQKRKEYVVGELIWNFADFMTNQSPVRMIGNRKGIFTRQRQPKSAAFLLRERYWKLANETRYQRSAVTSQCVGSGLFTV
Method: β-Glucuronidase inhibitory activity by hydrazide Schiff base ligand (H-AHMB) and its metal (II) complexes was investigated using standard procedure. […] According to the procedure 185 µL of 0.1 M acetate buffer, 5 µL compound to be tested and 10 µL of enzyme solution were mixed and incubated at 37 °C for 30 min. SpectraMax plus 384, Molecular Devices, USA was used to read on a multiplate reader at 405 nm after the addition of 0.4 mM p-nitrophenyl-β-D-glucuronide (50 µL). All experiments were performed in triplicate.

DPPH radical scavenging [1] = conditions: for IC50: DPPH scavenging
Method: The synthetic Schiff base ligand and its metal complexes were tested for their ability to scavenge DPPH radicals using the methodology described by Soare, Dinis, Cunha, and Almeida in 1997[64]. Initially, 1 mL of 0.2 mM DPPH dissolved in methanol was combined with 0.1 mL of each sample at 250, 500, 750, and 1000 µg/mL concentrations. For 20 min, the reaction mixture was kept at 28 °C and kept in the dark. Methanol served as the control, which had all the components but no sample. A UV/Vis spectrophotometer was used to detect the absorbance at 517 nm in order to assess the DPPH radical scavenging activity. For comparison, the DPPH radical scavenging capacity of ascorbic acid was also determined. %Inhibitioneffect=Ac-As/Ac×100
Ac = Absorbance by the control, As = Absorbance by the sample[37].

DPPH radical scavenging [2] = conditions: Conc. 0.05 mM
β-glucuronidase = conditions: cited from earlier work

In the case of “Copper adduct with N′-[(4-hydroxy-3-methoxyphenyl)methylidene] 2-aminobenzohydrazide [Cu-AHMB]”, the “% inhibition” value (β-glucuronidase enzyme) is reported as 73.3%, the IC50 (DPPH radical scavenging [1]) is reported as 183 ± 6.6 µM and the “% Radical scavenging activity” value (DPPH radical scavenging [2]) is reported as 84.29%.

For `COc1cc(C=NNC(=O)c2ccccc2N)ccc1O` [H-AHMB, N′-[(4-hydroxy-3-methoxyphenyl)methylidene] 2-aminobenzohydrazide], the “antioxidant potential against DPPH free radicals (in words)” value (DPPH radical scavenging [1]) was “inactive” and the “% Radical scavenging activity” value (DPPH radical scavenging [2]) was 22.97%.

In the case of “Nickel adduct with N′-[(4-hydroxy-3-methoxyphenyl)methylidene] 2-aminobenzohydrazide [Ni-AHMB]”, the “% inhibition” value (β-glucuronidase enzyme) is reported as 96.0%, the IC50 (DPPH radical scavenging [1]) is reported as 467 ± 2.9 µM and the “% Radical scavenging activity” value (DPPH radical scavenging [2]) is reported as 52.40%.

For `O=C(O)c1cc(O)c(O)c(O)c1` [Gallic acid, reference compound], the IC50 (DPPH radical scavenging [1]) was 63 ± 0.43 µM and the “% Radical scavenging activity” value (DPPH radical scavenging [2]) was 93.13%.

For “Zinc adduct with N′-[(4-hydroxy-3-methoxyphenyl)methylidene] 2-aminobenzohydrazide [Zn-AHMB]”, the “% inhibition” value (β-glucuronidase enzyme) was 98.3% and the “% Radical scavenging activity” value (DPPH radical scavenging [2]) was 49.16%.

In the case of `O=C[C@H](O)[C@H]1OC(=O)[C@@H](O)[C@H]1O` [D-glucurono-γ-lactone], the “inhibition of the β-glucuronidase enzyme” value (β-glucuronidase) is listed as “marked inhibition”.

For `CC(=O)O[C@@H]1C(=O)O[C@H]2[C@@H]1OC(=O)[C@@H]2OC(C)=O` [2,5-di-O-acetyl-D-glucaro-1,4:6,3-Dilactone], the “inhibition of the β-glucuronidase enzyme” value (β-glucuronidase) is listed as “marked inhibition”.

In the case of “Cobalt adduct with N′-[(4-hydroxy-3-methoxyphenyl)methylidene] 2-aminobenzohydrazide [Co-AHMB]”, the “% inhibition” value (β-glucuronidase enzyme) is reported as 78.8%, the IC50 (DPPH radical scavenging [1]) is reported as 98.2 ± 1.78 µM and the “% Radical scavenging activity” value (DPPH radical scavenging [2]) is reported as 88.46%.

In the case of `O=C1OC(C(O)C(=O)O)C(O)C1O` [D-saccharic acid-1,4-lactone, reference compound], the “% inhibition” value (β-glucuronidase enzyme) is reported as 89.4%.

From PMC10766943, “Synthesis, characterization, Hirshfeld surface analysis, antioxidant and selective β-glucuronidase inhibitory studies of transition metal complexes of hydrazide based Schiff base ligand” (Scientific Reports, 2024)
